Experimental data from ChEMBL document CHEMBL1201862, “PubChem BioAssay data set” (2004).
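Method: 48-hour compound exposure of cells in 96-well plates, five concentrations, linear interpolation of endpoints. GI50: concentration for 50% inhibition of growth.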 Active and inactive are the calls of the source. No stated cut-off is given here; in the data, active = GI50 up to about 1.1 µM and inactive = higher.

Columns and labels:
Test in all cases: NCI-60 cell line screen, 48 h
UACC-257 = system: UACC-257
UACC-62 = system: UACC-62
KM12 = system: KM12
SF-539 = system: SF-539
K562 = system: K562
A498 = system: A498
HCT-15 = system: HCT-15
OVCAR-3 = system: OVCAR-3
SF-295 = system: SF-295
SNB-19 = system: SNB-19
MCF7 = system: MCF7
DU-145 = system: DU-145
SR = system: SR
PC-3 = system: PC-3
CAKI-1 = system: CAKI-1
HOP-62 = system: HOP-62
RXF 393 = system: RXF 393
HCT-116 = system: HCT-116
NCI-H460 = system: NCI-H460
HCC 2998 = system: HCC 2998
SK-MEL-2 = system: SK-MEL-2
SK-OV-3 = system: SK-OV-3
U-251 = system: U-251
NCI-H23 = system: NCI-H23
BT-549 = system: BT-549
M14 = system: M14
OVCAR-8 = system: OVCAR-8
MDA-MB-435 = system: MDA-MB-435
OVCAR-5 = system: OVCAR-5
TK-10 = system: TK-10
RPMI-8226 = system: RPMI-8226
HOP-92 = system: HOP-92
NCI/ADR-RES = system: NCI/ADR-RES
LOX IMVI = system: LOX IMVI
SW-620 = system: SW-620
SK-MEL-5 = system: SK-MEL-5
786-0 = system: 786-0
UO-31 = system: UO-31
COLO 205 = system: COLO 205
MDA-N = system: MDA-N
IGROV-1 = system: IGROV-1
NCI-H226 = system: NCI-H226
ACHN = system: ACHN
T47D = system: T47D
Malme-3M = system: Malme-3M
HL-60 = system: HL-60
SNB-75 = system: SNB-75
HT-29 = system: HT-29
NCI-H522 = system: NCI-H522
MOLT-4 = system: MOLT-4
A549 = system: A549
EKVX = system: EKVX
SK-MEL-28 = system: SK-MEL-28
SN12C = system: SN12C
CCRF-CEM = system: CCRF-CEM
MDA-MB-231 = system: MDA-MB-231
OVCAR-4 = system: OVCAR-4
SF-268 = system: SF-268

COc1cc(/C=C2\C(=O)N(c3ccc(NC(C)=O)cc3)C(c3ccccc3)S2(=O)=O)cc(OC)c1OC (stereo unspecified)
GI50 (UACC-257): > 100 µM (inactive) | GI50 (UACC-62): > 100 µM (inactive) | GI50 (KM12): > 100 µM (inactive) | GI50 (SF-539): > 100 µM (inactive) | GI50 (K562): 39.9 µM (inactive) | GI50 (A498): > 100 µM (inactive) | GI50 (HCT-15): > 100 µM | GI50 (OVCAR-3): 93.3 µM (inactive) | GI50 (SF-295): 78 µM (inactive) | GI50 (SNB-19): > 100 µM (inactive) | GI50 (MCF7): 45.5 µM (inactive) | GI50 (DU-145): > 100 µM (inactive) | GI50 (SR): 36.7 µM (inactive) | GI50 (PC-3): 48.4 µM (inactive) | GI50 (CAKI-1): > 100 µM (inactive) | GI50 (HOP-62): > 100 µM (inactive) | GI50 (RXF 393): > 100 µM (inactive) | GI50 (HCT-116): > 100 µM (inactive) | GI50 (NCI-H460): > 100 µM (inactive) | GI50 (HCC 2998): > 100 µM (inactive) | GI50 (SK-MEL-2): > 100 µM (inactive) | GI50 (SK-OV-3): > 100 µM (inactive) | GI50 (U-251): > 100 µM (inactive) | GI50 (NCI-H23): > 100 µM (inactive) | GI50 (BT-549): > 100 µM (inactive) | GI50 (M14): > 100 µM (inactive) | GI50 (OVCAR-8): > 100 µM (inactive) | GI50 (MDA-MB-435): 92.9 µM (inactive) | GI50 (OVCAR-5): > 100 µM (inactive) | GI50 (TK-10): > 100 µM (inactive) | GI50 (RPMI-8226): 60.8 µM (inactive) | GI50 (HOP-92): > 100 µM (inactive) | GI50 (NCI/ADR-RES): > 100 µM (inactive) | GI50 (LOX IMVI): > 100 µM (inactive) | GI50 (SW-620): > 100 µM (inactive) | GI50 (SK-MEL-5): 68.1 µM (inactive) | GI50 (786-0): > 100 µM (inactive) | GI50 (UO-31): 66.5 µM (inactive) | GI50 (COLO 205): > 100 µM (inactive) | GI50 (MDA-N): 79.6 µM (inactive) | GI50 (IGROV-1): > 100 µM (inactive) | GI50 (NCI-H226): > 100 µM (inactive) | GI50 (ACHN): > 100 µM (inactive) | GI50 (T47D): 28.6 µM (inactive) | GI50 (Malme-3M): > 100 µM (inactive) | GI50 (HL-60): 18.3 µM (inactive) | GI50 (SNB-75): 43.6 µM (inactive) | GI50 (HT-29): > 100 µM (inactive) | GI50 (NCI-H522): > 100 µM (inactive) | GI50 (MOLT-4): 25.1 µM (inactive) | GI50 (A549): > 100 µM (inactive) | GI50 (EKVX): 91.4 µM (inactive) | GI50 (SK-MEL-28): > 100 µM (inactive) | GI50 (SN12C): > 100 µM (inactive) | GI50 (CCRF-CEM): 44.5 µM (inactive) | GI50 (MDA-MB-231): > 100 µM (inactive) | GI50 (OVCAR-4): 60.8 µM (inactive)

CCC/C(Cl)=N\OC(=O)Nc1ccc(F)c([N+](=O)[O-])c1
GI50 (UACC-257): 17.3 µM (inactive) | GI50 (UACC-62): 18.7 µM (inactive) | GI50 (KM12): 16.7 µM (inactive) | GI50 (SF-539): 24 µM (inactive) | GI50 (K562): 5.32 µM (inactive) | GI50 (A498): 21.5 µM (inactive) | GI50 (HCT-15): 16.9 µM | GI50 (OVCAR-3): 15.6 µM (inactive) | GI50 (SF-295): 33.8 µM (inactive) | GI50 (SNB-19): 15.2 µM (inactive) | GI50 (MCF7): 25.5 µM (inactive) | GI50 (SF-268): 14.2 µM (inactive) | GI50 (DU-145): 14.7 µM (inactive) | GI50 (PC-3): 15.2 µM (inactive) | GI50 (CAKI-1): 4.3 µM (inactive) | GI50 (HOP-62): 18.4 µM (inactive) | GI50 (HCT-116): 26.2 µM (inactive) | GI50 (NCI-H460): 12.5 µM (inactive) | GI50 (HCC 2998): 14.5 µM (inactive) | GI50 (SK-MEL-2): 14.3 µM (inactive) | GI50 (SK-OV-3): 24.6 µM (inactive) | GI50 (U-251): 18.3 µM (inactive) | GI50 (NCI-H23): 12.9 µM (inactive) | GI50 (BT-549): 10.2 µM (inactive) | GI50 (M14): 14.7 µM (inactive) | GI50 (OVCAR-8): 17.5 µM (inactive) | GI50 (MDA-MB-435): 16.2 µM (inactive) | GI50 (OVCAR-5): 20.4 µM (inactive) | GI50 (TK-10): 17 µM (inactive) | GI50 (RPMI-8226): 9.51 µM (inactive) | GI50 (HOP-92): 15 µM (inactive) | GI50 (NCI/ADR-RES): 17.9 µM (inactive) | GI50 (LOX IMVI): 21.9 µM (inactive) | GI50 (SW-620): 4.8 µM (inactive) | GI50 (SK-MEL-5): 16.7 µM (inactive) | GI50 (786-0): 16.8 µM (inactive) | GI50 (UO-31): 13.7 µM (inactive) | GI50 (COLO 205): 3.54 µM (inactive) | GI50 (MDA-N): 21.1 µM (inactive) | GI50 (IGROV-1): 15.3 µM (inactive) | GI50 (NCI-H226): 24.2 µM (inactive) | GI50 (ACHN): 4.97 µM (inactive) | GI50 (Malme-3M): 10.9 µM (inactive) | GI50 (SNB-75): 17.6 µM (inactive) | GI50 (HT-29): 20.1 µM (inactive) | GI50 (NCI-H522): 1.79 µM (inactive) | GI50 (MOLT-4): 3.41 µM (inactive) | GI50 (A549): 24.7 µM (inactive) | GI50 (EKVX): 16.2 µM (inactive) | GI50 (SK-MEL-28): 18 µM (inactive) | GI50 (SN12C): 27.2 µM (inactive) | GI50 (CCRF-CEM): 3.74 µM (inactive) | GI50 (MDA-MB-231): 20.3 µM (inactive) | GI50 (OVCAR-4): 15.6 µM (inactive)
